Source: patent publication US20170333591A9, “ABSORBENT ARTICLE COMPRISING MALODOR REDUCTION COMPOSITIONS” (The Procter & Gamble Company, priority 2014, published 2017)

Experiment: Log of liquid dish neat product liquid-air partition coefficient
Format: physicochemical
Settings: not given

Compound | Comment Code: Log of liquid dish neat product liquid-air partition coefficient
C=C1C2CCC(C)(C)C1CCC(OC)C2 (centres unmarked) [Material 7] | K (Log of liquid dish neat product liquid-air partition coefficient greater than or equal to 7)
CCC(=O)OC1CC2C3C=CCC3C1C2(C)C (centres unmarked) [Material 343] | K (Log of liquid dish neat product liquid-air partition coefficient greater than or equal to 7)
CC1=C2CC(C(C)(C)O)CCC2(C)CCC1 (centres unmarked) [Material 329] | K (Log of liquid dish neat product liquid-air partition coefficient greater than or equal to 7)
CC1CCCCCCCCCCCCC(=O)C1 (centres unmarked) [Material 206] | K (Log of liquid dish neat product liquid-air partition coefficient greater than or equal to 7)
CC=CC(=O)C1C(C)=CCCC1(C)C (centres unmarked) [Material 880] | K (Log of liquid dish neat product liquid-air partition coefficient greater than or equal to 7)
CCCCCOC(=O)c1ccccc1 [Material 672] | K (Log of liquid dish neat product liquid-air partition coefficient greater than or equal to 7)
C=CC(C)CCCC(C)(C)O (centres unmarked) [Material 437] | K (Log of liquid dish neat product liquid-air partition coefficient greater than or equal to 7)
C=CCOCCc1ccccc1 [Material 744] | K (Log of liquid dish neat product liquid-air partition coefficient greater than or equal to 7)
CC(=O)C1=C(C)[C@@H]2C[C@@]3(C1)[C@H](C)CC[C@H]3C2(C)C [Material 1129] | K (Log of liquid dish neat product liquid-air partition coefficient greater than or equal to 7)
C=CCOC(=O)COc1ccccc1 [Material 743] | K (Log of liquid dish neat product liquid-air partition coefficient greater than or equal to 7)
CCCCCCOC(=O)c1ccco1 [Material 275] | K (Log of liquid dish neat product liquid-air partition coefficient greater than or equal to 7)
CC1(C)CCc2ccc(CCC=O)cc21 [Material 260] | K (Log of liquid dish neat product liquid-air partition coefficient greater than or equal to 7)
CCC(C)(C)C1CCC(O)CC1 (centres unmarked) [Material 995] | K (Log of liquid dish neat product liquid-air partition coefficient greater than or equal to 7)
C/C=C1/CC2CC1C1CCC(=O)OC21 (centres unmarked) [Material 353] | K (Log of liquid dish neat product liquid-air partition coefficient greater than or equal to 7)
CC1CCC2C(C)(C)C3CC12CCC3(C)OC=O (centres unmarked) [Material 566] | K (Log of liquid dish neat product liquid-air partition coefficient greater than or equal to 7)
C=C1C2CCC(C2)C1(C)CCC=C(C)CO (centres unmarked) [Material 616] | K (Log of liquid dish neat product liquid-air partition coefficient greater than or equal to 7)
COc1ccc(CC(C)=O)cc1 [Material 983] | K (Log of liquid dish neat product liquid-air partition coefficient greater than or equal to 7)

Same assay, conditions: Comment Code letters K and/or L

Compound | Log of liquid dish neat product liquid-air partition coefficient (Comment Code K/L)
CC(=O)C1=C(C)[C@@H]2C[C@@]3(C1)[C@H](C)CC[C@H]3C2(C)C [Material 1129] | K (Log of liquid dish neat product liquid-air partition coefficient greater than or equal to 7)

Same assay, conditions: code letter within the Comment Code cell

Compound | Log of liquid dish neat product liquid-air partition coefficient (Comment Code K/L)
C=C1C2CCC(C)(C)C1CCC(OC)C2 (centres unmarked) [Material 7] | K (Log of liquid dish neat product liquid-air partition coefficient greater than or equal to 7)
C=CC1(C)CCC(C(C)C)=CC1C(=C)C (centres unmarked) [Material 461] | K (Log of liquid dish neat product liquid-air partition coefficient greater than or equal to 7)
CCC(=O)OC1CC2C3C=CCC3C1C2(C)C (centres unmarked) [Material 343] | K (Log of liquid dish neat product liquid-air partition coefficient greater than or equal to 7)
CC1=C2CC(C(C)(C)O)CCC2(C)CCC1 (centres unmarked) [Material 329] | K (Log of liquid dish neat product liquid-air partition coefficient greater than or equal to 7)
CC1CCCCCCCCCCCCC(=O)C1 (centres unmarked) [Material 206] | K (Log of liquid dish neat product liquid-air partition coefficient greater than or equal to 7)
CCCCCCCCCCCCCC(=O)OC [Material 104] | K (Log of liquid dish neat product liquid-air partition coefficient greater than or equal to 7)
C=CC(C)(CCC=C(C)C)OC(=O)C(C)C (centres unmarked) [Material 149] | K (Log of liquid dish neat product liquid-air partition coefficient greater than or equal to 7)
CC1CCC(C(C)(C)O)CC2=C1CCC2C (centres unmarked) [Material 292] | K (Log of liquid dish neat product liquid-air partition coefficient greater than or equal to 7)
CC=Cc1ccc(OC)c(OC)c1 [Material 108] | K (Log of liquid dish neat product liquid-air partition coefficient greater than or equal to 7)
CCOC(=O)C1C(CC)=CCCC1(C)C (centres unmarked) [Material 294] | K (Log of liquid dish neat product liquid-air partition coefficient greater than or equal to 7)
CCc1ccccc1CC(C)(C)C=O [Material 356] | K (Log of liquid dish neat product liquid-air partition coefficient greater than or equal to 7)
CC1(C)CCc2ccc(CCC=O)cc21 [Material 260] | K (Log of liquid dish neat product liquid-air partition coefficient greater than or equal to 7)
CCCCCCOC(=O)c1ccccc1 [Material 271] | K (Log of liquid dish neat product liquid-air partition coefficient greater than or equal to 7)
c1ccc(CCCc2ccccn2)cc1 [Material 497] | K (Log of liquid dish neat product liquid-air partition coefficient greater than or equal to 7)
CCCCCCC(=O)OCc1ccco1 [Material 339] | K (Log of liquid dish neat product liquid-air partition coefficient greater than or equal to 7)
C/C=C1/CC2CC1C1CCC(=O)OC21 (centres unmarked) [Material 353] | K (Log of liquid dish neat product liquid-air partition coefficient greater than or equal to 7)
CCCCCCCCCC(OCC)OCC [Material 473] | K (Log of liquid dish neat product liquid-air partition coefficient greater than or equal to 7)
CCOC(=O)C12CCCC1C1CCC2C1 (centres unmarked) [Material 344] | K (Log of liquid dish neat product liquid-air partition coefficient greater than or equal to 7)
CC1=CCC(=C(C)C)CCC(C)=CCC1 [Material 295] | K (Log of liquid dish neat product liquid-air partition coefficient greater than or equal to 7)
CCOC(C=C(C)CCC=C(C)C)OCC [Material 521] | K (Log of liquid dish neat product liquid-air partition coefficient greater than or equal to 7)
CC1/C=C/CCCCCCCCCCC(=O)C1 (centres unmarked) [Material 80] | K (Log of liquid dish neat product liquid-air partition coefficient greater than or equal to 7)

Same assay, conditions: code letters K/L of the Comment Code

Compound | Log of liquid dish neat product liquid-air partition coefficient (Comment Code)
CCC=CCC=CCCO [Material 929] | K (Log of liquid dish neat product liquid-air partition coefficient greater than or equal to 7)
CC(C)=CCC/C(C)=C/CO [Material 1082] | K (Log of liquid dish neat product liquid-air partition coefficient greater than or equal to 7)
C/C(=C\C#N)CCc1ccccc1 [Material 894] | K (Log of liquid dish neat product liquid-air partition coefficient greater than or equal to 7)
CC1=CCC(CCC(C)CO)C1(C)C (centres unmarked) [Material 600] | K (Log of liquid dish neat product liquid-air partition coefficient greater than or equal to 7)
CCCCCC(=O)Oc1ccc(C)cc1 [Material 939] | K (Log of liquid dish neat product liquid-air partition coefficient greater than or equal to 7)
CC(=O)C=CC12OC1(C)CCCC2(C)C (centres unmarked) [Material 636] | K (Log of liquid dish neat product liquid-air partition coefficient greater than or equal to 7)
CC(C)CCCC(C)CCCC(C)C=O (centres unmarked) [Material 741] | K (Log of liquid dish neat product liquid-air partition coefficient greater than or equal to 7)
CC1CCC2(O1)C(C)(C)CCCC2(C)O (centres unmarked) [Material 893] | K (Log of liquid dish neat product liquid-air partition coefficient greater than or equal to 7)
C=C(C)C1CC=C(C=O)CC1 (centres unmarked) [Material 946] | K (Log of liquid dish neat product liquid-air partition coefficient greater than or equal to 7)
CCCC(=O)OCCc1ccccc1 [Material 831] | K (Log of liquid dish neat product liquid-air partition coefficient greater than or equal to 7)
CC1CCC2C(C)(C)C3CC12CCC3(C)OC=O (centres unmarked) [Material 566] | K (Log of liquid dish neat product liquid-air partition coefficient greater than or equal to 7)
N#CC(=C1CCCCC1)c1ccccc1 [Material 945] | K (Log of liquid dish neat product liquid-air partition coefficient greater than or equal to 7)
C=C1C2CCC(C2)C1(C)CCC=C(C)CO (centres unmarked) [Material 616] | K (Log of liquid dish neat product liquid-air partition coefficient greater than or equal to 7)
CCCOC(C)OCCc1ccccc1 (centres unmarked) [Material 766] | K (Log of liquid dish neat product liquid-air partition coefficient greater than or equal to 7)
Cc1ccc(CC(C)C=O)cc1 (centres unmarked) [Material 742] | K (Log of liquid dish neat product liquid-air partition coefficient greater than or equal to 7)
CC1=CCC(O)(C(C)C)CC1 (centres unmarked) [Material 800] | K (Log of liquid dish neat product liquid-air partition coefficient greater than or equal to 7)
CC1CC(C)(c2ccccc2)CO1 (centres unmarked) [Material 1006] | K (Log of liquid dish neat product liquid-air partition coefficient greater than or equal to 7)
